Measured values as given in patent publication US9840494B2, “Quinazoline derivative” (Tianjin Hemay Oncology Pharmaceutical Co., Ltd., priority 2013, dated 2017).

Key:
[1] = tested on: salmonella typhimurium TA97, TA98, TA100, TA1535, and TA102; conditions: with or without S9; for mutagenicity on TA102 strain: doses of less than and equal to 150 μg/plate; for mutagenicity on TA97 strain: doses of less than and equal to 500 μg/plate; for mutagenicity on TA98, TA100 and TA1535 strains: doses of less than and equal to 1500 μg/plate
Description: Direct mutagen 1: Dexon (Dima Technology Inc.; Batch No.: 456-2D)
Indirect mutagen: 2-aminoanthracene, 2-AA (Sigma-Aldrich Inc.; Batch No.: STBB1901V)
Strains: histidine auxotrophic mutants of salmonella typhimurium TA97, TA98, TA100, TA1535, and TA102 (Institute of Laboratory Animal Science, Chinese Academy of Medical Sciences) are cryopreserved in liquid nitrogen.
Bacteria suspension cryopreserved in liquid nitrogen was quickly thawed in a 37° C. water bath. 100 μL bacteria suspension was withdrawn and seeded into 20 mL nutrient broth. After static culture in the dark at 37° C. for 16 h, the bacteria suspension was taken for mutagenicity assay.
The solution was filtered through a 0.22 μm filter membrane. 1.0 mL initial filtrate was discarded during filtrating. Then the filtrated test sample solution (15 mg/mL) was gradiently diluted with DMSO to solutions having the concentrations of 5, 1.5, 0.5 and 0.15 mg/mL.
The solution was filtered through a 0.22 μm filter membrane, 1.0 mL initial filtrate was discarded during filtrating. Then the filtrated test sample solution (15 mg/mL) was gradiently diluted with sterile water for injection to solutions having the concentrations of 5, 1.5, 0.5 and 0.15 mg/mL.
Dexon: an appropriate amount of Dexon was weighed and dissolved in sterile water for injection to obtain a solution with a concentration of 250 μg/mL. The solution was used after being filtered through 0.22 μm sterile filter membrane.
The solution was used after being filtered through 0.22 μm sterile filter membrane.
2-aminoanthracene: an appropriate amount of 2-aminoanthracene was weighed and dissolved in DMSO to obtain a solution with a concentration of 30 μg/mL. The solution was used after being filtered through 0.22 μm sterile filter membrane.
The Sprague-Dawley rat liver S9 fraction used in this assay was prepared on May 18, 2012 with Batch No.: 20120518. It was stored in liquid nitrogen and the protein concentration is 20.477 mg/mL, which can be used before May 17, 2014. Sterility test and biological activity detection met the requirements of the assay.
Before use, S9 mixture was formulated under sterile conditions. The formulated volume was determined by operator according to the requirements of the assay. Other solvents were formulated in accordance with the standard operating procedures of the Centre.
0.1 mL test article or control drug solution, 0.5 mL S9 mixture or PBS (pH7.4), and 2.0 mL top medium (containing about 0.05 mM histidine, about 0.05 mM biotin, about 0.6% agar, and about 0.5% NaCl) in sequence, and 0.1 mL bacteria culture solution finally were added into glass test tubes (10 mL). The mixture was rapidly mixed uniformly on a vortex mixer and poured into the surface of the bottom medium. The top medium was spread evenly over the surface of the basal medium by slight rotation.
The plates were placed on a horizontal table until the medium were solidified. Then the plates were inverted and cultured at 37° C. for 48 h (except for the TA102 strain, which was cultured for 72 h). The plates were withdrawn to count the number of visible revertant colonies per plate. The precipitation phenomenon of the test samples was observed when loading and at the end of culture. Three plates were tested for each group under activation and non-activation conditions, respectively.
If the results meet the following one or two criteria, it would be assessed as positive.

[2] = molecular target: T1, EGFR (L858R/T790M) (Homo sapiens, UniProt P00533, L858R/T790M); assay: Inhibitory action on tyrosine kinase activity of mutant EGFR (L858R/T790M), Caliper; assay type: biochemical; conditions: kinase 10 nM, ATP 19 μM, polypeptide 3 μM, 60 min
T1 construct: purchased Invitrogen Corporation PR8911A
Description: EGFR(L858R/T790M): Invitrogen Corporation, catalogue No. PR8911A
(§1) P22(polypeptide substrate): GL Biochem Ltd., catalogue No. 112393
(§2) 3.2 Formulation of Kinase Buffer: 50 mM HEPES, pH 7.5, 0.0015% Brij-35, 10 mM MgCl2, and 2 mM DTT(dithiothreitol).
(§3) 3.3 Formulation of Termination Solution: 100 mM HEPES, pH 7.5, 0.015% Brij-35, 0.2% Coating Reagent #3 (prepared by Caliper workstation), and 50 mM EDTA (ethylene diamine tetraacetic acid).
(§4) 3.4.1 Formulation of a 50-fold concentration of a compound: for example, if the final concentration of the compound for assay is 12.5 nM, 50-fold concentration is 625 nM. The 50-fold concentration of the compound working solution was subjected to a 4-fold dilution with DMSO in a 96-well plate to obtain seven diluted concentrations in total.
(§5) 3.4.2 Transferring the 5-fold concentration of compound to a reaction plate: 10 μl solution was transferred from each well of the above-mentioned 96-well plate to another 96-well plate, and then 90 μl kinase buffer was added. 5 μl solution was transferred from the above 96-well plate to a 384-well reaction plate. […]
(§6) 3.6 The substrate conversion rate data was read with Caliper. […]
(§7) Inhibition rate %=(max-conversion rate)/(max-min)x100%, wherein max refers to the conversion rate of the DMSO control, min refers to the conversion of enzyme-free control. IC50 values were determined by the inhibition curve.

[3] = tested on: human non-small cell lung cancer cell line HCC827; assay: In vitro inhibitory action on human tumor cells, HCC827 (SRB); assay type: cell-based; conditions: SRB assay, usually 3 days
Description: Human epidermoid carcinoma cell line A431, human non-small cell lung cancer cell line HCC827, head and neck cancer cell lines Fadu and human pancreatic cancer cell line AsPC-1 were purchased from Cell Bank, Chinese Academy of Sciences.
3.2 Cell culture method: cells were cultured in the complete medium at 37° C. under 5% CO2 and saturated humidity until logarithmic growth phase, i.e., adherent cells substantially approach complete confluence, and then collected for subsequent assay. For the adherent cells, they were firstly digested with trypsin/EDTA to detach.
3.3 A certain number of cells were seeded into 96-well cell culture plates (hereinafter referred to as 96-well plates). […] Finally, total cellular protein in the wells was determined using SRB assay, or cell viability was determined with MTT assay.
3.3.1 The cell seeding concentration was determined by cell growth curve assay which completely simulates compound inhibition assay process. […]
3.4 Dilution and addition of compounds: the concentration of DMSO that can be tolerant by the cells was determined by DMSO tolerance assay, and thereby selecting the dilution and addition methods of compounds. The effects of different concentrations of DMSO on cell growth were determined by DMSO tolerance assay. […] Two methods are finally determined as follows. […]

[4] = molecular target: T2, EGFR (L858R) (Homo sapiens, UniProt P00533, L858R); assay: Inhibitory action on tyrosine kinase activity of mutant EGFR (L858R), Caliper; assay type: biochemical; conditions: kinase 9 nM, ATP 111 μM, polypeptide 3 μM, 60 min
T2 construct: purchased Invitrogen Corporation PR7447A
Description: EGFR(L858R): Invitrogen Corporation, catalogue No. PR7447A
as §1, §2, §3, §4, §5, §6, §7

T2 sequence (P00533 25-1210 L858R): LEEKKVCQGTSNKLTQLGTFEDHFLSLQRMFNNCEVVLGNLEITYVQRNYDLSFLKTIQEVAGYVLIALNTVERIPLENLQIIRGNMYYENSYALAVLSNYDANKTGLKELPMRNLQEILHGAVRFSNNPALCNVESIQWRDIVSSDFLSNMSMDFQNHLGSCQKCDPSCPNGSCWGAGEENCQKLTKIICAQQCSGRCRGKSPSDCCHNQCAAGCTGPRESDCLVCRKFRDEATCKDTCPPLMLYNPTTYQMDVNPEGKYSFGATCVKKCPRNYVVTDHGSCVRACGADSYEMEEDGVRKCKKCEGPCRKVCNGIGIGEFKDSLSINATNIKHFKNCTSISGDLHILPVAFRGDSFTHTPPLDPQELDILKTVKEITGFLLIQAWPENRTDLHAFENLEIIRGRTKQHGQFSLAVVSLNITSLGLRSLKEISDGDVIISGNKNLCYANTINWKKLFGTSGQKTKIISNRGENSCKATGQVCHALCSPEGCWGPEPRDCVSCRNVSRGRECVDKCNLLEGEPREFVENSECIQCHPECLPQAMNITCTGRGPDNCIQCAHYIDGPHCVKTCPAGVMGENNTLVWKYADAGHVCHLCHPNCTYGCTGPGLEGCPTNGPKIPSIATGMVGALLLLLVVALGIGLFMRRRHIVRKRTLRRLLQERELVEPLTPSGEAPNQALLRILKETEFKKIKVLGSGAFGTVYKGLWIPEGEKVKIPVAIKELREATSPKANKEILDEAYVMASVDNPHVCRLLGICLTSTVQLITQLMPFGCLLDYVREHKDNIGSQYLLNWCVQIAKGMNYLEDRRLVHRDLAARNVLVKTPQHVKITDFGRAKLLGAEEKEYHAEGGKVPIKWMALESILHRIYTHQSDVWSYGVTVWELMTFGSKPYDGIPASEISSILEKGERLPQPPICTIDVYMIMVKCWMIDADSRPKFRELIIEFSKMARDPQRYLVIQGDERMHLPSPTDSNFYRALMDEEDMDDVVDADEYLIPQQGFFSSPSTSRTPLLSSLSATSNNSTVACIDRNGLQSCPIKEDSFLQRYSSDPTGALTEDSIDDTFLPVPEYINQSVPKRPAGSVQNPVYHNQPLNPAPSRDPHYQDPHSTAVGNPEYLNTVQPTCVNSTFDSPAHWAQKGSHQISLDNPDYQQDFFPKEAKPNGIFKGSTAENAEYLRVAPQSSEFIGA
T1 sequence (P00533 25-1210 T790M/L858R): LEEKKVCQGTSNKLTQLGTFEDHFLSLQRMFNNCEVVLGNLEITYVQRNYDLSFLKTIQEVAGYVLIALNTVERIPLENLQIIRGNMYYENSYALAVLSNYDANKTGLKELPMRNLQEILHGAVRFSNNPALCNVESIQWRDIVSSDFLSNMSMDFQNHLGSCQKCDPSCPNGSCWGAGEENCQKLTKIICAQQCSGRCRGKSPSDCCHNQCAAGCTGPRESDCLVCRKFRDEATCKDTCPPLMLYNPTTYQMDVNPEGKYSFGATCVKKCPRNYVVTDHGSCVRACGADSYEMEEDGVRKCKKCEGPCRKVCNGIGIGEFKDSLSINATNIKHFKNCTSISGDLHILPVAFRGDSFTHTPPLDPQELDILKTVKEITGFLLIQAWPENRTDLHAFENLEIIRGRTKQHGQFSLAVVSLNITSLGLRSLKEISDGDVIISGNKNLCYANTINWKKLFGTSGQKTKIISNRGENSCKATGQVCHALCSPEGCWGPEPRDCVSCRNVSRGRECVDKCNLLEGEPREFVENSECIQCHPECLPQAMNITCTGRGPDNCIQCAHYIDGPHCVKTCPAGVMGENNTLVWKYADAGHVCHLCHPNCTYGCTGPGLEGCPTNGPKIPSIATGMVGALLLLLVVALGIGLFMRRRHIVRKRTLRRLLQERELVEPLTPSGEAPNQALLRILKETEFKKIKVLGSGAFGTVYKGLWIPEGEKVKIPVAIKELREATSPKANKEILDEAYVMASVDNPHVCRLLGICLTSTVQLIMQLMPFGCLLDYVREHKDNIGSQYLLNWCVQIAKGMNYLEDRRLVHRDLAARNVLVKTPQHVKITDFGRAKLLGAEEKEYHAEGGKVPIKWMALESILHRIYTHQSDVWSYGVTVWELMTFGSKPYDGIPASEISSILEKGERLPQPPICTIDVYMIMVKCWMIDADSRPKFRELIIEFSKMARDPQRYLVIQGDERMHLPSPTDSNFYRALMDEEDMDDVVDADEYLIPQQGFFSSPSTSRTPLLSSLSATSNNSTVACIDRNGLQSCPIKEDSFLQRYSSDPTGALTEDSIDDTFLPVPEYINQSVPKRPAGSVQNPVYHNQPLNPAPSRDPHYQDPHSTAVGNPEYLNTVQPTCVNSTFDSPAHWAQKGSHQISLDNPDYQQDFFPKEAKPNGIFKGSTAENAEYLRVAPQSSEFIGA

SMILES | mutagenicity on TA102 strain [1] | mutagenicity on TA97 strain [1] | mutagenicity on TA98, TA100 and TA1535 strains [1] | IC50 [2] [nM] | IC50 ([3]; Homo sapiens, HCC827, 72 h) [nM] | IC50 [4] [nM] | IC50 [3] [nM]
COCCOc1cc2ncnc(Nc3ccc(F)c(Cl)c3)c2cc1NC(=O)C=C1CCN(CCOC)CC1 [Compound 1, N-[4-(3-chloro-4-fluorophenylamino)-7-(2-methoxyethoxy)quinazolin-6-yl]-2-[1-(2-methoxyethyl)piperidin-4-ylidene]acetamide] | no mutagenicity | no mutagenicity | no mutagenicity | 266 | 8 | 0.4 | 
COCCOc1cc2ncnc(Nc3ccc(F)c(Cl)c3)c2cc1NC(=O)C=C1CCN(CCOC)CC1.CS(=O)(=O)O [Compound 3, N-[4-(3-chloro-4-fluorophenylamino)-7-(2-methoxyethoxy)quinazolin-6-yl]-2-[1-(2-methoxyethyl)piperidin-4-ylidene]acetamide dimethylsulfonate] | no mutagenicity | no mutagenicity | no mutagenicity | 235 |  | 0.45 | 10
